Test results: patent publication US9242984B2, “Pyrazolyl derivatives as Syk inhibitors” (Merck Sharp & Dohme Corp., priority 2012, dated 2016)

The compounds below were run against T1, recombinant human Syk (GST-hSyk fusion protein) (Homo sapiens, UniProt P43405) (assay: Homogeneous Time-Resolved Fluorescence (HTRF) assay for the recombinant human Syk enzyme). Settings: 10-dose titration, 25 μM ATP; read-out: rhSYK IC50.
T1 construct: purchased Carna Biosciences 08-176
Format: biochemical
Outline: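 GST-hSyk (5 pM) preincubated 10 min with compound (0.1% DMSO) in 15 mM Tris-HCl pH 7.5, 2 mM DTT; reaction started with 250 nM biotinylated peptide, 5 mM Mg, 25 μM ATP, 45 min, room temperature. EDTA quench, Eu-anti-phosphotyrosine/SA-APC HTRF read after 30 min; IC50 from 10-dose titration (10 μM–0.508 nM), four-parameter fit.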
An IC50 of 5.24 nM was found for `Cc1cc(Nc2nccc(C(F)F)n2)cc(-c2cnn(C3CCCC(O)C3O)c2)c1` (single isomer, unassigned) [Example 10.5, 3-[4-(3-{[4-(difluoromethyl)pyrimidin-2-yl]amino}-5-methylphenyl)-1H-pyrazol-1-yl]cyclohexane-1,2-diol] in this work. An IC50 of 7.4 nM was found for `Cc1cc(Nc2nccc(C(F)F)n2)cc(-c2cnn(C3CCCC(C)(O)C3(C)O)c2)c1` (stereo not shown) [Example 22.12, 3-[4-(3-{[4-(difluoromethyl)pyrimidin-2-yl]amino}-5-methylphenyl)-1H-pyrazol-1-yl]-1,2-dimethylcyclohexane-1,2-diol] in this work. An IC50 of 10.1 nM was found for `Cc1cc(Nc2nccc(C(F)(F)F)n2)cc(-c2cnn(C3CCNC(=O)CC3)c2)c1` (single isomer, unassigned) [14.1 (enantiomer 2)] in this work. An IC50 of 28 nM was found for `Cc1cc(Nc2nccc(C(F)(F)F)n2)cc(-c2cnn(C3CCNC(=O)CC3)c2)c1` (single isomer, unassigned) [14.1 (enantiomer 1)] in this work. An IC50 of 1.2 nM was found for `Cc1cc(Nc2nccc(C(F)(F)F)n2)cc(-c2cnn(C[C@@H]3OC(=O)N[C@H]3C)c2)c1` (single isomer, unassigned) [Example 23.1] in this work.

Same assay, conditions: IC50 class; 10-dose titration, 25 μM ATP; read-out: rhSYK Activity
An IC50 of no more than 100 nM was found for `Cc1cc(Nc2cc(C(C)(F)F)ccn2)nc(-c2cnn(CC3CNC(=O)O3)c2)c1` (stereo not shown) [Example 3.85, 5-{[4-(6-{[4-(1,1-difluoroethyl)pyridin-2-yl]amino}-4-methylpyridin-2-yl)-1H-pyrazol-1-yl]methyl}-1,3-oxazolidin-2-one] in this work. An IC50 of no more than 100 nM was found for `Cc1cc(Nc2nccc(C(F)(F)F)n2)cc(-n2cc(C(C)(O)c3ccc(C(=O)O)cc3)cn2)c1` (single isomer, unassigned) [Example 19.8, 4-{1-hydroxy-1-[1-(3-methyl-5-{[4-(trifluoromethyl)pyrimidin-2-yl]amino}phenyl)-1H-pyrazol-4-yl]ethyl}benzoic acid] in this work. An IC50 of no more than 100 nM was found for `Cc1cc(Nc2nccc(C(F)(F)F)n2)cc(-c2cnn(CCO)c2)c1` [Example 3.36, 2-[4-(3-methyl-5-{[4-(trifluoromethyl)-pyrimidin-2-yl]amino}-phenyl)-1H-pyrazol-1-yl]ethanol] in this work. An IC50 of no more than 100 nM was found for `Cc1cc(Nc2nccc(C(F)F)n2)cc(-c2cnn(C3CCCC(O)C3O)c2)c1` (single isomer, unassigned) [Example 10.5, 3-[4-(3-{[4-(difluoromethyl)pyrimidin-2-yl]amino}-5-methylphenyl)-1H-pyrazol-1-yl]cyclohexane-1,2-diol] in this work. An IC50 of no more than 100 nM was found for `Cc1cc(Nc2nccc(C)n2)cc(-c2cnn(CC3OC(=O)NC3(C)C)c2)c1` (stereo not shown) [Example 3.106, 4,4-dimethyl-5-[(4-{3-methyl-5-[(4-methylpyrimidin-2-yl)amino]phenyl}-1H-pyrazol-1-yl)methyl]-1,3-oxazolidin-2-one] in this work. An IC50 of no more than 100 nM was found for `COc1nc(Nc2cc(C)cc(-c3cnn(CCC(N)=O)c3)c2)ncc1Cl` [Example 2.7, 3-(4-{3-[(5-chloro-4-methoxypyrimidin-2-yl)amino]-5-methylphenyl}-1H-pyrazol-1-yl)propanamide] in this work. An IC50 of 100 to 1000 nM was found for `Cc1cc(Nc2cc(C)c(Cl)cn2)nc(-c2cnn(CCC(=O)O)c2)c1` [Example 1.27, 3-(4-{6-[(5-chloro-4-methylpyridin-2-yl)amino]-4-methylpyridin-2-yl}-1H-pyrazol-1-yl)propanoic acid] in this work. An IC50 of no more than 100 nM was found for `Cc1cc(Nc2nccc(C(F)F)n2)cc(-c2cnn(CC3OC(=O)NC3C3CC3)c2)c1` (stereo not shown) [Example 23.17, 4-cyclopropyl-5-{[4-(3-{[4-(difluoromethyl)pyrimidin-2-yl]amino}-5-methylphenyl)-1H-pyrazol-1-yl]methyl}-1,3-oxazolidin-2-one] in this work. An IC50 of no more than 100 nM was found for `Cc1cc(Nc2nccc(C(F)F)n2)cc(-c2cnn(C3CCCC(C)(O)C3(C)O)c2)c1` (stereo not shown) [Example 22.12, 3-[4-(3-{[4-(difluoromethyl)pyrimidin-2-yl]amino}-5-methylphenyl)-1H-pyrazol-1-yl]-1,2-dimethylcyclohexane-1,2-diol] in this work. An IC50 of no more than 100 nM was found for `Cc1cc(Nc2nccc(C(F)F)n2)cc(-c2cnn(CC(C)(C)NC(=O)OCCF)c2)c1` [Example 27.10, 2-fluoroethyl {2-[4-(3-{[4-(difluoromethyl)pyrimidin-2-yl]amino}-5-methylphenyl)-1H-pyrazol-1-yl]-1,1-dimethylethyl}carbamate] in this work. An IC50 of no more than 100 nM was found for `Cc1cc(Nc2nccc(C(C)(F)F)n2)cc(-c2cnn(CC(C)(O)C(C)(C)O)c2)c1` (stereo not shown) [Example 22.5, 1-[4-(3-{[4-(1,1-difluoroethyl)pyrimidin-2-yl]amino}-5-methylphenyl)-1H-pyrazol-1-yl]-2,3-dimethylbutane-2,3-diol] in this work. An IC50 of no more than 100 nM was found for `O=C(O)CCn1cc(-c2cccc(Nc3nccc(C(F)(F)F)n3)c2)cn1` [Example 2.5, 3-[4-(3-{[4-(trifluoro-methyl)pyrimidin-2-yl]amino}phenyl)-1H-pyrazol-1-yl]-propanoic acid] in this work. An IC50 of no more than 100 nM was found for `Cc1cc(Nc2nccc(C3CC3)n2)cc(-c2cnn(CC3CNC(=O)O3)c2)c1` (stereo not shown) [Example 2.19, 5-[(4-{3-[(4-cyclopropylpyrimidin-2-yl)amino]-5-methylphenyl}-1H-pyrazol-1-yl)methyl]-1,3-oxazolidin-2-one] in this work. An IC50 of no more than 100 nM was found for `Cc1cc(Nc2nccc(C(C)(F)F)n2)cc(-c2cnn(CC3OC(=O)NC3(C)C)c2)c1` (stereo not shown) [Example 3.104, 5-{[4-(3-{[4-(1,1-difluoroethyl)pyrimidin-2-yl]amino}-5-methylphenyl)-1H-pyrazol-1-yl]methyl}-4,4-dimethyl-1,3-oxazolidin-2-one] in this work. An IC50 of no more than 100 nM was found for `Cc1cc(Nc2nccc(C(F)(F)F)n2)cc(-c2cnn(CC(C)(O)C(N)=O)c2)c1` (single isomer, unassigned) [Example 8.3, 2-hydroxy-2-methyl-3-[4-(3-methyl-5-{[4-(trifluorometh-yl)pyrimidin-2-yl]amino}phenyl)-1H-pyrazol-1-yl]propanamide] in this work. An IC50 of 100 to 1000 nM was found for `Cc1cc(Nc2nccc(C(F)(F)F)n2)cc(-c2c[nH]nc2C)c1` [Example 2.39, N-[3-methyl-5-(3-methyl-1H-pyrazol-4-yl)phenyl]-4-(trifluoromethyl)pyrimidin-2-amine] in this work. An IC50 of no more than 100 nM was found for `Cc1cc(Nc2nccc(C(F)F)n2)cc(-c2cnn(CC3CNC(=O)O3)c2)c1` (stereo not shown) [Example 2.64, 5-{[4-(3-{[4-(difluoromethyl)pyrimidin-2-yl]amino}-5-methylphenyl)-1H-pyrazol-1-yl]methyl}-1,3-oxazolidin-2-one] in this work. An IC50 of no more than 100 nM was found for `Cc1cc(Nc2nccc(C(F)F)n2)cc(-c2cnn(CC3CC(=O)NC3C)c2)c1` (stereo not shown) [Example 2.79, 4-{[4-(3-{[4-(difluoromethyl)pyrimidin-2-yl]amino}-5-methylphenyl)-1H-pyrazol-1-yl]methyl}-5-methylpyrrolidin-2-one] in this work. An IC50 of 1000 to 10000 nM was found for `Cc1cc(Nc2cc(C(F)(F)F)ccn2)nc(-c2cc(C(F)(F)F)nn2C)n1` [Example 1.46, 6-methyl-2-[1-methyl-3-(trifluoromethyl)-1H-pyrazol-5-yl]-N-[4-(trifluoromethyl)pyridin-2-yl]pyrimidin-4-amine] in this work. An IC50 of no more than 100 nM was found for `Cc1cc(Nc2ncc(Cl)c(C)n2)cc(-c2cnn(CC3CNC(=O)O3)c2)c1` (stereo not shown) [Example 2.32, 5-[(4-{3-[(5-chloro-4-methylpyrimidin-2-yl)amino]-5-methylphenyl}-1H-pyrazol-1-yl)methyl]-1,3-oxazolidin-2-one] in this work. An IC50 of no more than 100 nM was found for `CCOC(=O)CCn1cc(-c2cc(C)cc(Nc3cc(C4CC4)ccn3)n2)cn1` [Example 1.17, ethyl 3-(4-{6-[(4-cyclopropylpyridin-2-yl)amino]-4-methylpyridin-2-yl}-1H-pyrazol-1-yl)propanoate] in this work. An IC50 of no more than 100 nM was found for `Cc1cc(Nc2nccc(C(F)F)n2)cc(-c2cnn(C[C@H]3CNCCO3)c2)c1` [Example 2.84, 4-(difluoromethyl)-N-(3-methyl-5-{1-[(2R)-morpholin-2-ylmethyl]-1H-pyrazol-4-yl}phenyl)pyrimidin-2-amine] in this work. An IC50 of no more than 100 nM was found for `Cc1cc(Nc2nccc(C(F)(F)F)n2)cc(-c2cnn(CC(O)COC(C)C)c2)c1` (stereo not shown) [Example 5.7, 1-(1-methylethoxy)-3-[4-(3-methyl-5-{[4-(trifluoro-methyl)pyrimidin-2-yl]amino}-phenyl)-1H-pyrazol-1-yl]propan-2-ol] in this work. An IC50 of no more than 100 nM was found for “4-{1-[4-(4-methyl-6-{[4-(trifluoromethyl)pyridin-2-yl]amino}pyridin-2-yl)-1H-pyrazol-1-yl]ethyl}pyrrolidin-2-one [Example 1.32]” in this work. An IC50 of no more than 100 nM was found for `Cc1cc(Nc2nccc(C(F)(F)F)n2)cc(-c2cnn(CC(C)(O)C(N)=O)c2)c1` (single isomer, unassigned) [Example 8.15, 2-hydroxy-2-methyl-3-[4-(3-methyl-5-{[4-(trifluorometh-yl)pyrimidin-2-yl]amino}phenyl)-1H-pyrazol-1-yl]propanamide] in this work. An IC50 of no more than 100 nM was found for `Cc1cc(Nc2nccc(C(F)(F)F)n2)cc(-c2cnn(C[C@@H]3OC(=O)N[C@H]3C)c2)c1` (single isomer, unassigned) [Example 23.1] in this work. An IC50 of no more than 100 nM was found for `Cc1cc(Nc2nccc(C(F)F)n2)cc(-c2cnn(CC(C)(C)NS(=O)(=O)N3CCOCC3)c2)c1` [Example 27.6, N-{2-[4-(3-{[4-(difluoromethyl)pyrimidin-2-yl]amino}-5-methylphenyl)-1H-pyrazol-1-yl]-1,1-dimethylethyl}morpholine-4-sulfonamide] in this work. An IC50 of no more than 100 nM was found for `Cc1cc(Nc2nccc(C3CC3)n2)cc(-c2cnn(C[C@](C)(O)CO)c2)c1` [Example 2.90, (2S)-3-(4-{3-[(4-cyclopropylpyrimidin-2-yl)amino]-5-methylphenyl}-1H-pyrazol-1-yl)-2-methylpropane-1,2-diol] in this work. An IC50 of no more than 100 nM was found for `Cc1cc(Nc2nccc(C(F)(F)F)n2)cc(-c2cnn(C[C@H](C)CO)c2)c1` [Example 3.5, (2s)-2-methyl-3-[4-(3-methyl-5-{[4-(trifluoromethyl)-pyrimidin-2-yl]amino}-phenyl)-1H-pyrazol-1-yl]-propan-1-ol] in this work. An IC50 of no more than 100 nM was found for `CC(O)c1ccnc(Nc2cccc(-c3cnn(C[C@](C)(O)CO)c3)c2)n1` (stereo partly drawn) [Example 2.93, (2S)-3-[4-(3-{[4-(1-hydroxyethyl)pyrimidin-2-yl]amino}phenyl)-1H-pyrazol-1-yl]-2-methylpropane-1,2-diol] in this work. An IC50 of no more than 100 nM was found for `Cc1cc(Nc2nccc(C(F)(F)F)n2)cc(-c2cnn(CC3CNC(=O)O3)c2)c1` (stereo not shown) [Example 3.33, 5-{[4-(3-methyl-5-{[4-(trifluoromethyl)pyrimidin-2-yl]amino}-phenyl)-1H-pyrazol-1-yl]methyl}-1,3-oxazolidin-2-one] in this work. An IC50 of no more than 100 nM was found for `Cc1cc(Nc2nccc(C)n2)cc(-c2cnn(CCC(N)=O)c2)c1` [Example 2.12, 3-(4-{3-methyl-5-[(4-methylpyrimidin-2-yl)amino]phenyl}-1H-pyrazol-1-yl)propanamide] in this work.
